This is an account of results in US20250084039A1, “4-SUBSTITUTED AMINOISOQUINOLINE DERIVATIVES” (Purdue Research Foundation, priority 2016, published 2025).

SMILES strings stand for the structures. Several values for one entry are separate records, joined by “and”; a condition that tells them apart may be missing. Equal entries are not always repeated. Where two headings read alike, the source gives them in different places. A value given as a limit tells only on which side of the number the result lay.

In one assay the target is FLT3 (D835V) (Homo sapiens (Human), UniProt P36888, D835V). Briefly: DiscoverX Kd Elect binding. From the text: (§1) Although the current drugs on the market or in clinical trials are relatively successful in killing the AML leukemia cells, they currently are unable to deal with secondary mutations that occur after TKI treatment, such as FLT3 ([…]).
The next assay concerns the target FLT3 (ITD) (Homo sapiens, UniProt P36888, ITD). Nature of the assay: DiscoverX Kd Elect binding. Conditions: Kd FLT3 (ITD).
Source text: as §1

Another assay deals with K562. Briefly: IC50 proliferation assay (Alamar Blue, 72 h). In kind it is cell-based.
Assay [1] has as its system MV4-11. Briefly: IC50 proliferation assay (Alamar Blue, 72 h). The class given is cell-based. To be noted: read-out: IC50 (proliferation inhibition) Cell line - MV4-11. The gist of the method: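 Cells seeded ~18 h before treatment with semi-serial compound dilutions made in DMSO then growth medium. After 72 h exposure, Alamar Blue added and read following 4 h further at 37 °C; IC50 for proliferation inhibition.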
A general note: Resazurin is reduced to fluorescent resorufin, in cell work by metabolically active cells.

The next assay has as its target LRRK2 (Homo sapiens (Human), UniProt Q5S007). Nature of the assay: Reaction Biology HotSpot kinase assay. The class given is biochemical. To be noted: 500 nM compound; for inhibition at 0.5 µM: read-out: Percentage kinase inhibition LRRK2. A digest of the protocol:
(§2)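 Single-point screen, 500 nM cpd; 20 min preinc with enzyme/substrate; start with ATP + 33P-ATP, 100 μM final; 2 h RT; P81 filter capture. Buffer: 20 mM HEPES pH 7.5, 10 mM MgCl2, 1 mM EGTA, 0.02% Brij35, 1% DMSO. Data as % activity vs DMSO.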

Another assay deals with CDK9/cyclin K (Homo sapiens (Human), UniProt P50750). Briefly: Reaction Biology HotSpot kinase assay. To be noted: 500 nM compound; for inhibition at 0.5 µM: read-out: Percentage kinase inhibition CDK9/cyclin K. The class given is biochemical. The gist of the method: as §2
For a further assay, the target named is IKKa/CHUK (Homo sapiens (Human), UniProt O15111). Briefly: Reaction Biology HotSpot kinase assay. In kind it is biochemical. Conditions: 500 nM compound; for inhibition at 0.5 µM: read-out: Percentage kinase inhibition IKKa/CHUK. A digest of the protocol:
as §2

A further assay addresses LYN (Homo sapiens (Human), UniProt P07948). Briefly: Reaction Biology HotSpot kinase assay. In kind it is biochemical. Conditions: 500 nM compound; for inhibition at 0.5 µM: read-out: Percentage kinase inhibition LYN. The gist of the method: as §2
The target in a further assay is RON/MST1R (Homo sapiens (Human), UniProt Q04912). Briefly: Reaction Biology HotSpot kinase assay. To be noted: 500 nM compound; for inhibition at 0.5 µM: read-out: Percentage kinase inhibition RON/MST1R. The class given is biochemical. A digest of the protocol: as §2
RON/MST1R, sequence (Q04912 25-1400): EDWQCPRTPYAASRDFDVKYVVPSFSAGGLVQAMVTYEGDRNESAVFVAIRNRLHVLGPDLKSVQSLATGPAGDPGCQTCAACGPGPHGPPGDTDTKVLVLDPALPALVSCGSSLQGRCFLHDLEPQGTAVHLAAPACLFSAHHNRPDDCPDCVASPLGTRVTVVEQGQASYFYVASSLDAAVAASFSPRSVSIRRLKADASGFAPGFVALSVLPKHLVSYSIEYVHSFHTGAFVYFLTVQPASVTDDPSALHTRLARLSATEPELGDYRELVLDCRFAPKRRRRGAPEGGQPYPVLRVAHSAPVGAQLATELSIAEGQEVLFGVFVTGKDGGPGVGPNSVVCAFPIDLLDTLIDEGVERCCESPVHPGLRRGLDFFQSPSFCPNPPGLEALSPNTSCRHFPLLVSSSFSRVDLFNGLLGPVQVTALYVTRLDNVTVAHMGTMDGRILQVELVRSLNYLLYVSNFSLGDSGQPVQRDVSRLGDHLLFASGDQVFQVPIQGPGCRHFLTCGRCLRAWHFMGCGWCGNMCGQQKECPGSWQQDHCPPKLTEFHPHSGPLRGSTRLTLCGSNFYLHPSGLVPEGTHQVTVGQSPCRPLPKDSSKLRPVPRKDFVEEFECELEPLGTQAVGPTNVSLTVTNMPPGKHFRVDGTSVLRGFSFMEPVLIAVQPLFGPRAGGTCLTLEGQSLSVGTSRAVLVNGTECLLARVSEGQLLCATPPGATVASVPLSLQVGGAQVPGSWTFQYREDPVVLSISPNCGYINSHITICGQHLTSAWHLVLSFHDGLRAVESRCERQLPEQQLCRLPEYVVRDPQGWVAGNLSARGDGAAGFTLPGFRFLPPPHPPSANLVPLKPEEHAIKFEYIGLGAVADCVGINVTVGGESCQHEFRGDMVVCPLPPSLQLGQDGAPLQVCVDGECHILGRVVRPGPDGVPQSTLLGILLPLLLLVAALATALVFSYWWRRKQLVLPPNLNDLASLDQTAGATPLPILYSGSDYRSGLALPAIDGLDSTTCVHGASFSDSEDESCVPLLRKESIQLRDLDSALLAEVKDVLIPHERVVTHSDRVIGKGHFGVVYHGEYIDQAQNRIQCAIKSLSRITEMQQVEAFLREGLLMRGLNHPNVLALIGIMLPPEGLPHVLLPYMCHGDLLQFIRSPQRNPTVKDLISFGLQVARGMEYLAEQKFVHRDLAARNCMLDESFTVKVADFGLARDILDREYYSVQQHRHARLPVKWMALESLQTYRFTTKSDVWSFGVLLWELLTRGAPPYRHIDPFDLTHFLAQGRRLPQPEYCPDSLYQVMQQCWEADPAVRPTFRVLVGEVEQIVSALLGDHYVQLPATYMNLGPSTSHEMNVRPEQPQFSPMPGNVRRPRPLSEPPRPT
The target in another assay is PIM1 (Homo sapiens (Human), UniProt P11309). Nature of the assay: Reaction Biology HotSpot kinase assay. In kind it is biochemical. To be noted: 500 nM compound; for inhibition at 0.5 µM: read-out: Percentage kinase inhibition PIM1. The gist of the method:
as §2

The target in the next assay is IR (Homo sapiens (Human), UniProt P06213). Briefly: Reaction Biology HotSpot kinase assay. To be noted: 500 nM compound; for inhibition at 0.5 µM: read-out: Percentage kinase inhibition IR. The class given is biochemical. A digest of the protocol:
as §2

Another assay concerns the target CDK1/cyclin E (Homo sapiens (Human), UniProt P06493). Briefly: Reaction Biology HotSpot kinase assay. The class given is biochemical. Conditions: 500 nM compound; for inhibition at 0.5 µM: read-out: Percentage kinase inhibition CDK1/cyclin E. A digest of the protocol: as §2
A further assay addresses IGF1R (Homo sapiens (Human), UniProt P08069). Briefly: Reaction Biology HotSpot kinase assay. The class given is biochemical. To be noted: 500 nM compound; for inhibition at 0.5 µM: read-out: Percentage kinase inhibition IGF1R. A digest of the protocol:
as §2

Another assay has as its target ERK1 (Homo sapiens (Human), UniProt P27361). Nature of the assay: Reaction Biology HotSpot kinase assay. The class given is biochemical. To be noted: 500 nM compound; for inhibition at 0.5 µM: read-out: Percentage kinase inhibition ERK1. A digest of the protocol:
as §2

Another assay has as its target FER (Homo sapiens (Human), UniProt P16591). Briefly: Reaction Biology HotSpot kinase assay. The class given is biochemical. To be noted: 500 nM compound; for inhibition at 0.5 µM: read-out: Percentage kinase inhibition FER. A digest of the protocol: as §2
A further assay concerns the target BLK (Homo sapiens (Human), UniProt P51451). Nature of the assay: Reaction Biology HotSpot kinase assay. In kind it is biochemical. To be noted: 500 nM compound; for inhibition at 0.5 µM: read-out: Percentage kinase inhibition BLK. A digest of the protocol:
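Compounds were screened at one concentration, 500 nM, in a radiometric kinase reaction. After a 20-minute preincubation with enzyme and substrate in pH 7.5 HEPES buffer (1% DMSO), the mixture received 100 μM ATP containing [γ-33P]ATP and was left 2 h at room temperature.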

Another assay has as its target CDK9/cyclin T2 (Homo sapiens (Human), UniProt P50750). Briefly: Reaction Biology HotSpot kinase assay. In kind it is biochemical. Conditions: 500 nM compound; for inhibition at 0.5 µM: read-out: Percentage kinase inhibition CDK9/cyclin T2. The gist of the method:
as §2

The target in another assay is FRK/PTK5 (Homo sapiens (Human), UniProt P42685). Briefly: Reaction Biology HotSpot kinase assay. The class given is biochemical. To be noted: 500 nM compound; for inhibition at 0.5 µM: read-out: Percentage kinase inhibition FRK/PTK5. A digest of the protocol: as §2
The target of the next assay is SYK (Homo sapiens (Human), UniProt P43405). Nature of the assay: Reaction Biology HotSpot kinase assay. The class given is biochemical. Conditions: 500 nM compound; for inhibition at 0.5 µM: read-out: Percentage kinase inhibition SYK. A digest of the protocol:
as §2

The target of a further assay is MKK7 (Homo sapiens (Human), UniProt O14733). Nature of the assay: Reaction Biology HotSpot kinase assay. The class given is biochemical. To be noted: 500 nM compound; for inhibition at 0.5 µM: read-out: Percentage kinase inhibition MKK7. A digest of the protocol: as §2
MKK7, sequence (O14733 whole entry): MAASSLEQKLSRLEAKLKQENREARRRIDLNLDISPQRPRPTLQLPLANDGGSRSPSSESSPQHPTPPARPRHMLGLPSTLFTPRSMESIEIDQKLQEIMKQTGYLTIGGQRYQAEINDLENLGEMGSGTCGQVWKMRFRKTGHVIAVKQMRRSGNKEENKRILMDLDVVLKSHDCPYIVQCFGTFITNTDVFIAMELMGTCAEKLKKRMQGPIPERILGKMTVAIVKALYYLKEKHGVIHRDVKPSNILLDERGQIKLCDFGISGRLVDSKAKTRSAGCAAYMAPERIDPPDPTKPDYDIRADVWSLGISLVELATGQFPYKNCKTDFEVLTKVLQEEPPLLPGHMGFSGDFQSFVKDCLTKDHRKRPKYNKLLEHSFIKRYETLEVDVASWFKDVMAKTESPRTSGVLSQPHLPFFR
The next assay deals with DDR2 (Homo sapiens (Human), UniProt Q16832). Nature of the assay: Reaction Biology HotSpot kinase assay. The class given is biochemical. To be noted: 500 nM compound; for inhibition at 0.5 µM: read-out: Percentage kinase inhibition DDR2. A digest of the protocol: as §2
DDR2, sequence (Q16832 22-855): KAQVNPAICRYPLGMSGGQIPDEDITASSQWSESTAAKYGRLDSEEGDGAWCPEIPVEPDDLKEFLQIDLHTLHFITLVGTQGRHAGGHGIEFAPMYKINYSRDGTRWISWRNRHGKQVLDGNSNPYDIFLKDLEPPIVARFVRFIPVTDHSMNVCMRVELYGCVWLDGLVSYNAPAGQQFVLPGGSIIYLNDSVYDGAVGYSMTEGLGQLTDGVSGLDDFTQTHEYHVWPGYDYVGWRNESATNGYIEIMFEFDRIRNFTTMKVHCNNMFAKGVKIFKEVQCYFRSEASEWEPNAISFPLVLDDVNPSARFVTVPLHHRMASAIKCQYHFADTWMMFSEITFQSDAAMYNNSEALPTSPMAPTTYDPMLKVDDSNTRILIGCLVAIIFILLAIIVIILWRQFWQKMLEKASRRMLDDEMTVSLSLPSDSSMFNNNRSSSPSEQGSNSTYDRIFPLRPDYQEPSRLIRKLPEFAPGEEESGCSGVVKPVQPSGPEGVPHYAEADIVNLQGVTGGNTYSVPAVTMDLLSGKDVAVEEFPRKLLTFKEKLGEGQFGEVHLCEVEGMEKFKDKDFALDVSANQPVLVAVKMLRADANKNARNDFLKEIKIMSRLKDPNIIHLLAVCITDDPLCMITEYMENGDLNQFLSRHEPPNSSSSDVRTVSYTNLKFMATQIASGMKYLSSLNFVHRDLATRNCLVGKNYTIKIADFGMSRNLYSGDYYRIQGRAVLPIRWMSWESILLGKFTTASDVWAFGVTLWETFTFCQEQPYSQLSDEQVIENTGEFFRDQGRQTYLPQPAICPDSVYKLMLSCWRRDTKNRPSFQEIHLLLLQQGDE
Assay [2] relates to MV4-11. Nature of the assay: IC50 determination (proliferation assay, CellTiter-Blue). In kind it is cell-based. A digest of the protocol: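 MOLM14 and MV4-11 cells seeded about 18 h before compound addition (DMSO-diluted), then 72 h exposure.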
Where [3] appears, read: Homo sapiens, K562, Table 18, read-out: Inhibition of proliferation of K562 cell lines (CML).
The mark [4] stands for this setting: Homo sapiens, K562, 72 h, read-out: IC50 (proliferation inhibition) Cell line - K562.

CDK1/cyclin E, sequence (P06493 whole entry): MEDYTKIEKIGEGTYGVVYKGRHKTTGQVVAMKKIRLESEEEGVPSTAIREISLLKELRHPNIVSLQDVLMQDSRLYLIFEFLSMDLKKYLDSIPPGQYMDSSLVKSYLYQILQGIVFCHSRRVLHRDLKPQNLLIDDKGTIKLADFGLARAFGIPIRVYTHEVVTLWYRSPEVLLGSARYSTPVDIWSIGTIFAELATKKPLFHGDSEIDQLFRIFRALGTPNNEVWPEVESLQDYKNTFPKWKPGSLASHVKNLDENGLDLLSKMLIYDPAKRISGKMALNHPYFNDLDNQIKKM
CDK1/cyclin E, sequence (P24864 whole entry partner): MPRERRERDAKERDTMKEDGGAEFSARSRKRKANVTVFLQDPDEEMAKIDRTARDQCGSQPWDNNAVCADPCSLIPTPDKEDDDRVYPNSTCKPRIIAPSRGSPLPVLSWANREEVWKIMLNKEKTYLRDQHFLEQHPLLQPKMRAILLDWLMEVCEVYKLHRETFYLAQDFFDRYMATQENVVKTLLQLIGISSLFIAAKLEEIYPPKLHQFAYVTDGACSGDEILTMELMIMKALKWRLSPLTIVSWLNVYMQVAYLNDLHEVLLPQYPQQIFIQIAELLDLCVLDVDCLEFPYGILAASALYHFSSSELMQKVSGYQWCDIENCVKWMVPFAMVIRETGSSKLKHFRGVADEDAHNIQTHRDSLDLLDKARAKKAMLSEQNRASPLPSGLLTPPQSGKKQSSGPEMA
IGF1R, sequence (P08069 31-1367): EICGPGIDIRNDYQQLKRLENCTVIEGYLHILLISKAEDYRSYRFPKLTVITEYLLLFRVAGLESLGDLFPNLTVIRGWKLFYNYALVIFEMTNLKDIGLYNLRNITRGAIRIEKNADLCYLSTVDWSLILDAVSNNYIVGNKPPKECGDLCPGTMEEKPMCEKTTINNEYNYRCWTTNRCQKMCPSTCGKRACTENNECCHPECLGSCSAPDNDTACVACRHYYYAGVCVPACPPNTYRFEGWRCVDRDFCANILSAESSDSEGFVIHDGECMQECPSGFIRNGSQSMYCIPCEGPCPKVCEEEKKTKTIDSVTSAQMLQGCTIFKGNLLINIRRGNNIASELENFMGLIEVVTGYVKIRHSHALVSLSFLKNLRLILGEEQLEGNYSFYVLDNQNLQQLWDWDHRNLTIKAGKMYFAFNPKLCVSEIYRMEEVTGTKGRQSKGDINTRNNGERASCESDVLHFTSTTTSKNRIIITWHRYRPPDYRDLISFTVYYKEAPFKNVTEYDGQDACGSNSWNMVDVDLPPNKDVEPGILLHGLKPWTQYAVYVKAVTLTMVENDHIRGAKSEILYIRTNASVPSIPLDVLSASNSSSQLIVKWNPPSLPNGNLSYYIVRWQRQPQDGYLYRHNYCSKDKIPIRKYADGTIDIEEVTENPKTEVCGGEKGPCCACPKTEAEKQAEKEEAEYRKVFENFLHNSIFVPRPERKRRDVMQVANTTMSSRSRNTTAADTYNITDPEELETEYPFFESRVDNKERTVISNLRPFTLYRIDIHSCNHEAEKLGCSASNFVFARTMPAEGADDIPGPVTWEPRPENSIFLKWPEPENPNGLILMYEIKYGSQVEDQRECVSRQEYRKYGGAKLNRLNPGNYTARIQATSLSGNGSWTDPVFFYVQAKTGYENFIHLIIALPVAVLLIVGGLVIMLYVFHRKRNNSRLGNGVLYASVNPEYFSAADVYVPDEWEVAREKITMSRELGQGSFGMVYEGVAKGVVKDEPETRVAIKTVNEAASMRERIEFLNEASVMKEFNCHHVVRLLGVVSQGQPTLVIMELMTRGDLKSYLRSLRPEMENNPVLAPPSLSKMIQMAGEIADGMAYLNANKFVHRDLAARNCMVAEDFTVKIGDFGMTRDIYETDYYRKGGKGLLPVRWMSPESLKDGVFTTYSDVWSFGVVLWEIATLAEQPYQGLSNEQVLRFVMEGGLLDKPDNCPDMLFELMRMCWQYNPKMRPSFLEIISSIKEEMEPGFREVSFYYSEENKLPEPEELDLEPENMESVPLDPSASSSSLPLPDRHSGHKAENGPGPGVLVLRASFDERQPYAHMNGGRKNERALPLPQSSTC
PIM1, sequence (P11309 whole entry): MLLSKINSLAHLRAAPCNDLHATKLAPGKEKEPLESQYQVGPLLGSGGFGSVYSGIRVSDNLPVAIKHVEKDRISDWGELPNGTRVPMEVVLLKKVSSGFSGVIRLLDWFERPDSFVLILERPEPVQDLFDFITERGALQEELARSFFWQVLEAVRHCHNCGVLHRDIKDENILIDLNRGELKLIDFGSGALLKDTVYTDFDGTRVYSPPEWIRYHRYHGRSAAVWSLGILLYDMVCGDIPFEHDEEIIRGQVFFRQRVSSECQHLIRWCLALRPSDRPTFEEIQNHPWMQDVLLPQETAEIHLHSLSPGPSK

The Kd is a measure of binding affinity in units of concentration. A higher Kd goes with a looser complex. As for `Cc1ccc(C(=O)Nc2ccc(CN3CCN(C)CC3)c(C(F)(F)F)c2)cc1C#Cc1c(N)ncc2ccc(Cl)cc12` [HSN286], the Kd on FLT3 (D835V) is 120 nM; on FLT3 (ITD), 27.6 nM and 26 nM. In addition, the IC50 was found to be 3.5 ± 0.02 nM in the assay with K562 (setting [3]) and 0.4 nM in the assay with MV4-11 [1] (Homo sapiens, MV4-11, 72 h). For the same compound, the inhibition at 0.5 µM was 6% at LRRK2; 24% on CDK9/cyclin K; 36% at IKKa/CHUK; 98% at LYN; 0% at RON/MST1R; 0% at PIM1. Moreover, the inhibition at 0.5 µM on IR came out at 16%; at CDK1/cyclin E, 0%; at IGF1R it was 0%; on ERK1, 0%; on FER, 0%; on BLK, 100%. In addition, the inhibition at 0.5 µM is 0% at CDK9/cyclin T2; 95% on FRK/PTK5; 0% at SYK; 0% on MKK7; 77% at DDR2.
Regarding `CN(C)CC(O)CNC(=O)c1ccc(C#Cc2c(N)ncc3ccc(Cl)cc23)cc1` (stereo not shown) [HSM1702], the IC50 in the assay with MV4-11 [2] is 71 ± 1.1 nM; in the assay with K562 (72 h, read-out: IC50 (proliferation inhibition) Cell line - K562), 5060 nM; in the assay with K562 (Table 18, read-out: Inhibition of proliferation of K562 cell lines (CML)) it was 5057 ± 0.45 nM; in the assay with MV4-11 [1] (72 h), 71 nM. For the same compound, at LRRK2, the “Percentage kinase inhibition LRRK2” value worked out at 40%. Besides, on CDK9/cyclin K, the “Percentage kinase inhibition CDK9/cyclin K” value was 53%. Besides, the “Percentage kinase inhibition IKKa/CHUK” value on IKKa/CHUK is 0%. The “Percentage kinase inhibition LYN” value at LYN came to 6%. At RON/MST1R, the “Percentage kinase inhibition RON/MST1R” value was determined as 0%. Also, the “Percentage kinase inhibition PIM1” value at PIM1 came to 34%. Further, at IR, the “Percentage kinase inhibition IR” value was found to be 9%. Further, the “Percentage kinase inhibition CDK1/cyclin E” value at CDK1/cyclin E was 13%. Moreover, on IGF1R, the “Percentage kinase inhibition IGF1R” value worked out at 3%. In addition, on ERK1, the “Percentage kinase inhibition ERK1” value is 5%. The “Percentage kinase inhibition FER” value on FER turned out to be 0%. Besides, at BLK, the “Percentage kinase inhibition BLK” value is reported as 10%. On CDK9/cyclin T2, the “Percentage kinase inhibition CDK9/cyclin T2” value is given as 65%. The “Percentage kinase inhibition FRK/PTK5” value on FRK/PTK5 is recorded as 0%. On SYK, the “Percentage kinase inhibition SYK” value was 4%. Besides, the “Percentage kinase inhibition MKK7” value at MKK7 worked out at 0%. Besides, the “Percentage kinase inhibition DDR2” value on DDR2 stood at 0%.
On to `Cc1ccc(C(=O)Nc2ccc(CN3CCN(C)CC3)c(C(F)(F)F)c2)cc1C#Cc1cnc(N)c2ccccc12` [HSN334, 3-((1-aminoisoquinolin-4-yl)ethynyl)-4-methyl-N-(4-((4-methylpiperazin-1-yl)methyl)-3-(trifluoromethyl)phenyl)benzamide], for which the IC50 is 1.38 ± 0.1 nM in the assay on MV4-11 [2]; less than 1 nM in the assay with MV4-11 [2] (Homo sapiens, MV4-11); 6 nM in the assay on K562 (setting [4]); 6.1 ± 0.1 nM with K562 (setting [3]); 1 nM with MV4-11 [1] (Homo sapiens, MV4-11, 72 h). The “proliferation inhibition in words, MV4-11 / AML” value with MV4-11 [2] is on record as “potent proliferation inhibitors”. Moreover, the Kd on FLT3 (D835V) came out at 120 nM; at FLT3 (ITD), 19 nM.
Regarding `COc1cc2nc(N)nc(C#Cc3cc(C(=O)Nc4ccc(CN5CCN(C)CC5)c(C(F)(F)F)c4)ccc3C)c2cc1OC` [HSN325], the IC50 is 135 ± 5.87 nM in the assay with MV4-11 [2] (Homo sapiens, MV4-11); 444 nM in the assay on K562 (setting [4]); 44 ± 0.1 nM in the assay with K562 (setting [3]); 135 nM in the assay on MV4-11 [1] (Homo sapiens, MV4-11, 72 h). The inhibition at 0.5 µM is 0% at LRRK2; 7% on CDK9/cyclin K; 6% at IKKa/CHUK; 69% at LYN; 0% on RON/MST1R; 0% at PIM1. The inhibition at 0.5 µM at IR came to 9%; at CDK1/cyclin E, 0%; on IGF1R it was 0%; at ERK1, 0%; on FER it was 12%; at BLK, 30%. In addition, the inhibition at 0.5 µM was 0% on CDK9/cyclin T2; 49% at FRK/PTK5; 0% at SYK; 6% on MKK7; 81% on DDR2.
In the case of `Cc1ccc(C(=O)Nc2ccc(CN3CCN(C)CC3)c(C(F)(F)F)c2)cc1C#Cc1cc(N)nc2ccccc12` [HSN285], the “proliferation inhibition in words, MV4-11 / AML” value with MV4-11 [2] is recorded as “neither potent inhibitors of FLT3 nor active against MV4-11 or MOLM-14”. Besides, the IC50 came to 721 ± 5.8 nM in the assay with MV4-11 [2] (Homo sapiens, MV4-11); 1100 nM in the assay on K562 (setting [4]); 1102 ± 0.08 nM with K562 (setting [3]); 722 nM with MV4-11 [1] (Homo sapiens, MV4-11, 72 h).
For the compound `Cc1ccc(C(=O)Nc2ccc(CN3CCN(C)CC3)c(C(F)(F)F)c2)cc1C#Cc1cnc(N)c2ncccc12` [HSN356, 3-((8-amino-1,7-naphthyridin-5-yl)ethynyl)-4-methyl-N-(4-((4-methylpiperazin-1-yl)methyl)-3-(trifluoromethyl)phenyl)benzamide], the “proliferation inhibition in words, MV4-11 / AML” value in the assay on MV4-11 [2] is on record as “potent proliferation inhibitors”. Also, the Kd on FLT3 (D835V) amounted to 19 nM; at FLT3 (ITD), 6.7 nM. Moreover, the IC50 in the assay with K562 (setting [4]) amounted to 2 nM; with K562 (setting [3]) it was 1.8 ± 0.03 nM; in the assay on MV4-11 [1] (Homo sapiens, MV4-11, 72 h) it was 0.4 nM.
